In patent US20240368209A1, “GEMCITABINE ANTICANCER DERIVATIVE AND ANTICANCER PHARMACEUTICAL USE” (ASCENTAWITS PHARMACEUTICALS, LTD., priority 2021, published 2024):

Test system: HuPrime pancreatic cancer xenograft model PA1222
Test: In vivo pharmacodynamic experiment in HuPrime pancreatic cancer PA1222 PDX model
Settings: for Tumor volume (x ± S): mean ± standard error
[1] = Group 3, 240 mg/kg p.o. QD×21, Day 32
[2] = Group 4, 160 mg/kg i.p. QD×5, 2 days off, 2 weeks off, QD×5, Day 32

## CC(C)NP(=O)(OCc1ccc([N+](=O)[O-])c(Oc2ccc(-c3ccc(F)cc3)c(F)c2)c1)OCC1OC(C2N=CC(N)=NC2=O)C(F)(F)C1O (centres unmarked) [Compound H11]
Group 3, 240 mg/kg p.o. QD×21
  weight loss and tolerability during treatment: did not show any significant weight loss, and tolerated well
[1]
  Relative tumor volume (x ± S): 0.47 ± 0.27
  T/C (%): 7.65%
  TGI (%): 92.35%
  complete tumor inhibition rate: 20%
  Tumor volume (x ± S): 44.61 ± 22.14
Group 3, 240 mg/kg p.o., Day 0
  Average weight (g) of mice: 21.8 g
Group 3, 240 mg/kg p.o., Day 1
  Average weight (g) of mice: 21.5 g
Group 3, 240 mg/kg p.o., Day 2
  Average weight (g) of mice: 21.5 g
Group 3, 240 mg/kg p.o., Day 3
  Average weight (g) of mice: 21.6 g
Group 3, 240 mg/kg p.o., Day 4
  Average weight (g) of mice: 21.9 g
Group 3, 240 mg/kg p.o., Day 5
  Average weight (g) of mice: 22.3 g
Group 3, 240 mg/kg p.o., Day 6
  Average weight (g) of mice: 21.7 g
Group 3, 240 mg/kg p.o., Day 7
  Average weight (g) of mice: 21.6 g
Group 3, 240 mg/kg p.o., Day 8
  Average weight (g) of mice: 21.7 g
Group 3, 240 mg/kg p.o., Day 9
  Average weight (g) of mice: 22.5 g
Group 3, 240 mg/kg p.o., Day 10
  Average weight (g) of mice: 21.6 g
Group 3, 240 mg/kg p.o., Day 11
  Average weight (g) of mice: 21.9 g
Group 3, 240 mg/kg p.o., Day 12
  Average weight (g) of mice: 22.0 g
Group 3, 240 mg/kg p.o., Day 13
  Average weight (g) of mice: 21.9 g
Group 3, 240 mg/kg p.o., Day 14
  Average weight (g) of mice: 21.6 g
Group 3, 240 mg/kg p.o., Day 15
  Average weight (g) of mice: 21.6 g
Group 3, 240 mg/kg p.o., Day 16
  Average weight (g) of mice: 22.1 g
Group 3, 240 mg/kg p.o., Day 17
  Average weight (g) of mice: 21.8 g
Group 3, 240 mg/kg p.o., Day 18
  Average weight (g) of mice: 21.9 g
Group 3, 240 mg/kg p.o., Day 19
  Average weight (g) of mice: 21.8 g
Group 3, 240 mg/kg p.o., Day 20
  Average weight (g) of mice: 21.9 g
Group 3, 240 mg/kg p.o., Day 21
  Average weight (g) of mice: 21.8 g
Group 3, 240 mg/kg p.o., Day 25
  Average weight (g) of mice: 22.6 g
Group 3, 240 mg/kg p.o., Day 28
  Average weight (g) of mice: 22.4 g
Group 3, 240 mg/kg p.o., Day 32
  Average weight (g) of mice: 22.9 g
Group 3, 240 mg/kg p.o., day 0
  Tumor volume (mm^3) (x ± S): 102.83 mm^3
Group 3, 240 mg/kg p.o., day 4
  Tumor volume (mm^3) (x ± S): 123.16 mm^3
Group 3, 240 mg/kg p.o., day 7
  Tumor volume (mm^3) (x ± S): 90.07 mm^3
Group 3, 240 mg/kg p.o., day 11
  Tumor volume (mm^3) (x ± S): 54.28 mm^3
Group 3, 240 mg/kg p.o., day 14
  Tumor volume (mm^3) (x ± S): 41.73 mm^3
Group 3, 240 mg/kg p.o., day 18
  Tumor volume (mm^3) (x ± S): 34.60 mm^3
Group 3, 240 mg/kg p.o., day 21
  Tumor volume (mm^3) (x ± S): 29.52 mm^3
Group 3, 240 mg/kg p.o., day 25
  Tumor volume (mm^3) (x ± S): 30.71 mm^3
Group 3, 240 mg/kg p.o., day 28
  Tumor volume (mm^3) (x ± S): 30.59 mm^3
Group 3, 240 mg/kg p.o., day 32
  Tumor volume (mm^3) (x ± S): 44.61 mm^3
Group 4, 160 mg/kg i.p. QD×5, 2 days off, 2 weeks off, QD×5
  weight loss and tolerability during treatment: did not show any significant weight loss, and tolerated well
[2]
  Relative tumor volume (x ± S): 2.01 ± 0.41
  T/C (%): 32.38%
  TGI (%): 67.62%
  Tumor volume (x ± S): 202.58 ± 45.40
Group 4, 160 mg/kg i.p., Day 0
  Average weight (g) of mice: 21.4 g
Group 4, 160 mg/kg i.p., Day 1
  Average weight (g) of mice: 22.0 g
Group 4, 160 mg/kg i.p., Day 2
  Average weight (g) of mice: 21.5 g
Group 4, 160 mg/kg i.p., Day 3
  Average weight (g) of mice: 22.0 g
Group 4, 160 mg/kg i.p., Day 4
  Average weight (g) of mice: 21.7 g
Group 4, 160 mg/kg i.p., Day 7
  Average weight (g) of mice: 22.3 g
Group 4, 160 mg/kg i.p., Day 11
  Average weight (g) of mice: 22.5 g
Group 4, 160 mg/kg i.p., Day 14
  Average weight (g) of mice: 22.9 g
Group 4, 160 mg/kg i.p., Day 18
  Average weight (g) of mice: 22.7 g
Group 4, 160 mg/kg i.p., Day 21
  Average weight (g) of mice: 22.9 g
Group 4, 160 mg/kg i.p., Day 22
  Average weight (g) of mice: 22.6 g
Group 4, 160 mg/kg i.p., Day 23
  Average weight (g) of mice: 22.5 g
Group 4, 160 mg/kg i.p., Day 24
  Average weight (g) of mice: 22.6 g
Group 4, 160 mg/kg i.p., Day 25
  Average weight (g) of mice: 22.5 g
Group 4, 160 mg/kg i.p., Day 28
  Average weight (g) of mice: 22.6 g
Group 4, 160 mg/kg i.p., Day 32
  Average weight (g) of mice: 23.3 g
